# According to patent publication US6207677A, “Piperidine derivatives having anxiolytic effect” (H. Lundbeck A/S, priority 1991, dated 2001):
# Target: sigma receptors
# Test: Inhibition of 3H-DTG binding to sigma receptors in rat brain in vitro
# Settings: 2 nM 3H-DTG, rat brain without cerebellum, 25° C., 20 min
# Protocol: INHIBITION OF 3H-DTG BINDING TO SIGMA RECEPTORS IN RAT BRAIN IN VITRO
# By this method the inhibition by drugs of the binding of 2 nM ^3 H-DTG (1,3,di-o-tolyl guanidine) to sigma receptors in homogenates or membranes from rat brain without cerebellum is determined in vitro as modified from Weber et al. Proc. Natl. Acad. Sci. 1986, 83,8784.
# Homogenate: Rats (150-250 g) are decapitated and the brains (without cerebellum) quickly removed and placed on ice, weighed and homogenized in 100 vol ice-cold (0° C.) 50 mM Tris-buffer (pH 7.7) in an ethanol rinsed glass/teflon homogenizer at 0° C. and kept on ice until use.
# P2-membranes: Brains are homogenized in 10 vol 0.32 M sucrose in an ethanol rinsed glass/teflon homogenizer with 10 strokes up and down. The homogenate is centrifuged for 10 min at 900×gm at 4° C. The supernatant is decanted and centrifuged for 20 min at 50,000 gm at 4° C. The resulting pellet is resuspended in 10 vol ice-cold […] Tris-buffer (pH 7.7) and incubated for 30 min. at 37° C. The membrane suspension is then centrifuged for further 20 min. at 50,000 gm at 4° C. The pellet is resuspended in 50 vol. of ice-cold Tris-buffer and used immediately.
# 0.5 ml 50 mM Tris-buffer (pH 7.7), 0.25 ml displacer (6×100 μM DTG, 6× [test compound], or Tris-buffer), and 0.25 ml 6×2 nM. ^3 H-DTG are mixed into 5 ml s plastic test tubes and kept at 4° C. until use. The binding reaction is initiated by mixing 0.5 ml tissue suspension into this solution and incubate at 25° C. for 20 min. Glass fiber filters (Whatman GF/B) are placed on the filter machine which is then closed tightly. Just before filtration vacuum is applied, and the filters washed with 0.1% PEI solution from a spray bottle followed by one wash with Tris-buffer.
# The binding reaction is stopped by filtration of the assay mixture at reduced pressure (750 mbar) followed by further 3 washes with 5 ml ice-cold Tris-buffer. The filters are then placed in counting vials and 4 ml scintillation solution added. The vials are counted in a Beckmann scintillation counter.
# 50 mM Tris-buffer pH 7.7: 7.38 g Trizma--7.7 plus distilled H2 O ad 1 liter. 100 ml 10% polyethylenimine (PEI): 100 ml dest. H2 O is added to approx. 20 g 50% PEI which is solubilized by stirring and heating. Diluted (1+99) before use. 6×2 nM ^3 H-DTG: The exact volume depends on the actual concentration of the batch, but is made as close as possible to 12 nM. The containers for the radioactive solution is rinsed in 96% ethanol before use.
# ^3 H-DTG was obtained from NEN Research Products, Du Pont Denmark. Specific activity 62.3 Ci/mmol.
# The known sigma receptor ligands BMY 14802 and rimcazole were included in the test for comparison purposes.
row,Molecule,IC50 [nM]
1,"1'-[3-(2,3-Dihydro-5-fluoro-benzofuran-3-yl)-1-butyl]-spiro[isobenzofuran-1(3H),4'-piperidine] [Compound 11b]",0.63
2,"CCCCCN1CCC2(CC1)OCc1ccccc12 [Compound 1b, 1'-Pentylspiro[isobenzofuran-1(3H),4'-piperidine]]",3.7
3,"c1ccc(CCCCN2CCC3(CC2)OCc2ccccc23)cc1 [Compound 2a, 1'-(4-Phenyl-1-butyl)spiro[isobenzofuran-1(3H),4'-piperidine]]",0.25
4,Fc1ccc2[nH]cc(CCCCN3CCC4(CC3)OCc3ccccc34)c2c1 [Compound 2aa],0.3
5,"c1ccc2c(c1)COC21CCN(CCCCC2CCCCC2)CC1 [Compound 2b, 1'-(4-Cyclohexyl-1-butyl)spiro[isobenzofuran-1(3H), 4'-piperidine)]",0.07
6,"Cn1cc(CCCCN2CCC3(CC2)OCc2ccccc23)c2ccccc21 [Compound 2bb, 1'-[4-(1-Methyl-3-indolyl)-1-butyl]-spiro[isobenzofuran-1(3H),4'-piperidine]]",0.3
7,"c1ccc(CCCCN2CCC3(CCc4ccccc43)CC2)cc1 [Compound 2c, 2,3-Dihydro-1'-(4-phenyl-1-butyl)spiro[1H-indene-1,4'-piperidine]]",0.51
8,"c1ccc(C2CCN(CCCCc3c[nH]c4ccccc34)CC2)cc1 [Compound 2cc, 3-[4-(4-Phenyl-1-piperidyl)-1-butyl]indole]",1.1
9,"c1ccc(CCCCN2CCC3(CC2)SCc2ccccc23)cc1 [Compound 2d, 1'-(4-Phenyl-1-butyl)spiro[benzo[c]thiophene-1(3H),4'-piperidine]]",0.77
10,"Clc1ccc(C2CCN(CCCCc3c[nH]c4ccccc34)CC2)cc1Cl [Compound 2dd, 3-[4-(4-(3,4-Dichlorophenyl)-1-piperidyl)-1-butyl]indole]",1.7
11,"c1ccc(CCCCN2CCC3(CCCc4ccccc43)CC2)cc1 [Compound 2e, 3,4-Dihydro-1'-(4-phenyl-1-butyl)spiro[naphtalene-1(2H),4'-piperidine]]",1.2
12,"Fc1ccc(C2CCN(CCCCc3c[nH]c4cc(Cl)c(Cl)cc34)CC2)cc1 [Compound 2ee, 5,6-Dichloro-3-[4-(4-(4-fluorophenyl)-1-piperidyl)-1-butyl]-indole]",1
13,c1ccc(CCCCN2CCC3(CC2)COCc2ccccc23)cc1 [Compound 2f],0.95
14,"Fc1ccc(C2CCN(CCCCCCc3c[nH]c4ccccc34)CC2)cc1 [Compound 2ff, 3-[6-(4-(4-Fluorophenyl)-1-piperidinyl)-1-hexyl]indole]",0.43
15,"c1ccc(CCCCN2CCC3(CC2)Cc2ccccc2CO3)cc1 [Compound 2g, 1,4-Dihydro-1'-(4-phenyl-1-butyl)spiro[3H-2-benzopyran-3,4'-piperidine]]",0.36
16,"COc1ccccc1C1CCN(CCCCc2c[nH]c3ccccc23)CC1 [Compound 2gg, 3-[4-(4-(2-Methoxyphenyl)-1-piperidinyl)-1-butyl]indol]",3.3
17,"c1ccc(CCCCN2CCC3(CCc4ccccc4O3)CC2)cc1 [Compound 2h, 3,4-Dihydro-1'-(4-phenyl-1-butyl)spiro[2H-1-benzopyran-2,4'-piperidine]]",1.4
18,"c1ccc(Cn2cc(CCCCN3CCC4(CC3)OCc3ccccc34)c3ccccc32)cc1 [Compound 2hh, 1'-[4-(1-Benzyl-3-indolyl)-1-butyl]-spiro[isobenzofuran-1(3h),4'-piperidine]]",0.02
19,"C1=CC2(CCN(CCCCc3ccccc3)CC2)Oc2ccccc21 [Compound 2i, 1'-(4-Phenyl-1-butyl)spiro[2H-1-benzopyran-2,4'-piperidine]]",4.3
20,"O=C1Nc2ccccc2C1CCCCN1CCC(c2ccc(F)cc2)CC1 (centres unmarked) [Compound 2ii, 3-[4-(4-(4-Fluorophenyl)-1-piperidyl)-1-butyl]indol-2-one]",5.8
21,"c1ccc2c(c1)COC21CCN(CCCOC2CCCCC2)CC1 [Compound 2j, 1'-(3-Cyclohexyloxy-1-propyl)spiro[isobenzofuran-1(3H),4'-piperidine]]",0.07

row,Molecule,IC50 [nM]
1,"Fc1ccc2c(c1)C1(CCN(CCCCc3c[nH]c4ccccc34)CC1)OC2 [Compound 2jj, 6-Fluoro-1'-(4-(3-indolyl)-1-butyl)spiro[isobenzofuran-1(3H),4'-piperidine]]",1.4
2,"c1ccc(OCCCN2CCC3(CC2)OCc2ccccc23)cc1 [Compound 2k, 1'-(3-Phenoxy-1-propyl)spiro[isobenzofuran-1(3H),4'-piperidine]]",0.19
3,"c1ccc(OCCCN2CCC3(CC2)Cc2ccccc2CO3)cc1 [Compound 2l, 1'-(3-Phenoxy-1-propyl)spiro[3H-2-benzopyran-3,4'-piperidine]]",3.8
4,"CSCCCN1CCC2(CC1)OCc1ccccc12 [Compound 2n, 1'-(3-Methylthio-1-propyl)spiro[isobenzofuran-1(3H),4'-piperidine]]",6
5,"c1ccc(SCCCN2CCC3(CC2)OCc2ccccc23)cc1 [Compound 2p, 1'-(3-Phenylthio-1-propyl)spiro[isobenzofuran-1(3H),4'-piperidine]]",0.32
6,"O=S(=O)(CCCN1CCC2(CC1)OCc1ccccc12)C1CCCCC1 [Compound 2r, 1'-(3-Cyclohexylsulfonyl-1-propyl)spiro[isobenzofuran-1(3H),4'-piperidine]]",3
7,"O=S(=O)(CCCN1CCC2(CC1)OCc1ccccc12)c1ccccc1 [Compound 2s, 1'-(3-Phenylsulfonyl-1-propyl)spiro[isobenzofuran-1 (3H),4'-piperidine]]",3.1
8,"c1ccc(CCCCN2C3CCC2CC2(C3)OCc3ccccc32)cc1 (centres unmarked) [Compound 2t, 8'-(4-Phenyl-1-butyl)spiro[isobenzofuran-1(3H),3'-8-azabicyclo[3,2,1]octane]]",5.4
9,"c1ccc2c(c1)COC21CCN(CCCCc2c[nH]c3ccccc23)CC1 [Compound 2u, 1'-[4-(3-Indolyl)-1-butyl]-spiro[isobenzofuran-1(3H),4'-piperidine]]",0.41
10,"c1ccc2c(c1)COCC21CCN(CCCCc2c[nH]c3ccccc23)CC1 [Compound 2v, 1'-[4-(3-Indolyl)-1-butyl]-spiro[1H-2-benzopyran-4(3H),4'-piperidine]]",1.8
11,"c1ccc2c(c1)COCC21CCN(CCCCCc2c[nH]c3ccccc23)CC1 [Compound 2x, 1'-[5-(3-Indolyl)-1-pentyl]-spiro[1H-2-benzopyran-4(3H),4'-piperidine]]",1.6
12,"c1ccc2c(c1)COCC21CCN(CCCCCCc2c[nH]c3ccccc23)CC1 [Compound 2y, 1'-[6-(3-Indolyl)-1-hexyl]-spiro[1H-2-benzopyran-4(3H),4'-piperidine]]",0.84
13,"Clc1cc2[nH]cc(CCCCN3CCC4(CC3)OCc3ccccc34)c2cc1Cl [Compound 2z, 1'-[4-(5,6-Dichloro-3-indolyl)-1-butyl]-spiro[isobenzofuranr-1(3H) ,4'-piperidine]]",1.5
14,"O=C1N(CCCCN2CCC3(CC2)OCc2ccccc23)CCN1C1CCCCC1 [Compound 3a, 1'-(4-(3-Cyclohexylimidazolidin-2-on-1-yl)-1-butyl)spiro[isobenzofuran-1 (3H), 4'-piperidine]]",2.2
15,O=C1N(CCN2CCC3(CC2)OCc2ccccc23)CCN1c1ccccc1 [Compound 3b],4.8
16,O=C1N(CCCN2CCC3(CC2)OCc2ccccc23)CCN1c1ccccc1 [Compound 3c],1
17,"O=C1N(CCN2CCC3(CC2)OCc2ccccc23)CCN1C1CCCCC1 [Compound 3d, 1'-(2-(3-Cyclohexylimidazolidin-2-on-1-yl)-1-ethyl)spiro[isobenzofuran-1(3H),4'-piperidine)]",7.3
18,"CCCN1CCC2(CC1)OCc1ccccc12 [Compound 4a, 1'-Propyl-spiro[isobenzofuran-1(3H),4'-piperidine]]",23
19,"CC(C)CCCCN1CCC2(CC1)OCc1ccccc12 [Compound 4b, 1'-(5-Methyl-1-hexyl)-spiro[isobenzofuran-1(3H),4'-piperidine)]",0.53
20,"c1ccc(CCN2CCC3(CC2)OCc2ccccc23)cc1 [Compound 4c, 1'-(2-Phenyl-1-ethyl)-spiro[isobenzofuran-1(3h),4'-piperidine]]",2.9
